Laboratory results: ChEMBL document CHEMBL4507284, “Data for DCP probe BI-1230” (2021)

Tests used:
[1] = molecular target: NUAK family SNF1-like kinase 1 (Homo sapiens) (UniProt O60285); details: Compound concentration 1000.0 nM
[2] = test system: Serine/threonine-protein kinase B-raf (Homo sapiens), P15056 [V600E]; details: Compound concentration 1000.0 nM
[3] = molecular target: Cyclin-dependent kinase 3 (Homo sapiens) (UniProt Q00526); details: Compound concentration 1000.0 nM
[4] = molecular target: Cyclin-dependent kinase 5 (Homo sapiens) (UniProt Q00535); details: Compound concentration 1000.0 nM
[5] = molecular target: Death-associated protein kinase 3 (Homo sapiens) (UniProt O43293); details: Compound concentration 1000.0 nM
[6] = molecular target: Dual specificity tyrosine-phosphorylation-regulated kinase 1A (Homo sapiens) (UniProt Q13627); details: Compound concentration 1000.0 nM
[7] = test system: Epidermal growth factor receptor (Homo sapiens), P00533 [G719S]; details: Compound concentration 1000.0 nM
[8] = test system: Epidermal growth factor receptor (Homo sapiens), P00533 [UNDEFINED MUTATION]; details: Compound concentration 1000.0 nM
[9] = test system: Epidermal growth factor receptor (Homo sapiens), P00533 [UNDEFINED MUTATION]; details: Compound concentration 1000.0 nM; remark: listed apart in the source
[10] = molecular target: Ephrin type-A receptor 6 (Homo sapiens) (UniProt Q9UF33); details: Compound concentration 1000.0 nM
[11] = molecular target: Receptor tyrosine-protein kinase erbB-4 (Homo sapiens) (UniProt Q15303); details: Compound concentration 1000.0 nM
[12] = molecular target: Mitogen-activated protein kinase 3 (Homo sapiens) (UniProt P27361); details: Compound concentration 1000.0 nM
[13] = test system: Receptor-type tyrosine-protein kinase FLT3 (Homo sapiens), P36888 [D835H]; details: Compound concentration 1000.0 nM
[14] = molecular target: Tyrosine-protein kinase Fyn (Homo sapiens) (UniProt P06241); details: Compound concentration 1000.0 nM
[15] = molecular target: Serine/threonine-protein kinase haspin (Homo sapiens) (UniProt Q8TF76); details: Compound concentration 1000.0 nM
[16] = molecular target: Homeodomain-interacting protein kinase 1 (Homo sapiens) (UniProt Q86Z02); details: Compound concentration 1000.0 nM
[17] = molecular target: Tyrosine-protein kinase JAK1 (Homo sapiens) (UniProt P23458); details: Compound concentration 1000.0 nM
[18] = test system: Mast/stem cell growth factor receptor Kit (Homo sapiens), P10721 [A829P]; details: Compound concentration 1000.0 nM
[19] = test system: Mast/stem cell growth factor receptor Kit (Homo sapiens), P10721 [V559D,V654A]; details: Compound concentration 1000.0 nM
[20] = molecular target: Serine/threonine-protein kinase LATS1 (Homo sapiens) (UniProt O95835); details: Compound concentration 1000.0 nM
[21] = molecular target: LIM domain kinase 1 (Homo sapiens) (UniProt P53667); details: Compound concentration 1000.0 nM
[22] = molecular target: Mitogen-activated protein kinase kinase kinase 2 (Homo sapiens) (UniProt Q9Y2U5); details: Compound concentration 1000.0 nM
[23] = molecular target: Mitogen-activated protein kinase kinase kinase kinase 3 (Homo sapiens) (UniProt Q8IVH8); details: Compound concentration 1000.0 nM
[24] = molecular target: MAP kinase-activated protein kinase 5 (Homo sapiens) (UniProt Q8IW41); details: Compound concentration 1000.0 nM
[25] = molecular target: Misshapen-like kinase 1 (Homo sapiens) (UniProt Q8N4C8); details: Compound concentration 1000.0 nM
[26] = molecular target: Serine/threonine-protein kinase Nek4 (Homo sapiens) (UniProt P51957); details: Compound concentration 1000.0 nM
[27] = molecular target: Serine/threonine-protein kinase OSR1 (Homo sapiens) (UniProt O95747); details: Compound concentration 1000.0 nM
[28] = molecular target: Cyclin-dependent kinase 16 (Homo sapiens) (UniProt Q00536); details: Compound concentration 1000.0 nM
[29] = test system: Phosphatidylinositol 4,5-bisphosphate 3-kinase catalytic subunit alpha isoform (Homo sapiens), P42336 [C420R]; details: Compound concentration 1000.0 nM
[30] = molecular target: Phosphatidylinositol 4,5-bisphosphate 3-kinase catalytic subunit beta isoform (Homo sapiens) (UniProt P42338); details: Compound concentration 1000.0 nM
[31] = molecular target: Phosphatidylinositol 4,5-bisphosphate 3-kinase catalytic subunit delta isoform (Homo sapiens) (UniProt O00329); details: Compound concentration 1000.0 nM
[32] = molecular target: Serine/threonine-protein kinase PLK1 (Homo sapiens) (UniProt P53350); details: Compound concentration 1000.0 nM
[33] = molecular target: Serine/threonine-protein kinase Sgk1 (Homo sapiens) (UniProt O00141); details: Compound concentration 1000.0 nM
[34] = molecular target: Tyrosine-protein kinase Tec (Homo sapiens) (UniProt P42680); details: Compound concentration 1000.0 nM
[35] = molecular target: Tyrosine-protein kinase receptor Tie-1 (Homo sapiens) (UniProt P35590); details: Compound concentration 1000.0 nM
[36] = molecular target: Serine/threonine-protein kinase tousled-like 2 (Homo sapiens) (UniProt Q86UE8); details: Compound concentration 1000.0 nM
[37] = molecular target: BDNF/NT-3 growth factors receptor (Homo sapiens) (UniProt Q16620); details: Compound concentration 1000.0 nM
[38] = molecular target: Non-receptor tyrosine-protein kinase TYK2 (Homo sapiens) (UniProt P29597); details: Compound concentration 1000.0 nM
[39] = molecular target: Mitogen-activated protein kinase kinase kinase 19 (Homo sapiens) (UniProt Q56UN5); details: Compound concentration 1000.0 nM
[40] = molecular target: D(4) dopamine receptor (Homo sapiens) (UniProt P21917); details: Compound concentration 10.0 uM
[41] = molecular target: Alpha-2A adrenergic receptor (Homo sapiens) (UniProt P08913); details: Compound concentration 10.0 uM
[42] = molecular target: Alpha-2B adrenergic receptor (Homo sapiens) (UniProt P18089); details: Compound concentration 10.0 uM
[43] = molecular target: Beta-2 adrenergic receptor (Homo sapiens) (UniProt P07550); details: Compound concentration 10.0 uM
[44] = molecular target: Muscarinic acetylcholine receptor M3 (Homo sapiens) (UniProt P20309); details: Compound concentration 10.0 uM
[45] = molecular target: Sigma intracellular receptor 2 (Homo sapiens) (UniProt Q5BJF2); details: Compound concentration 10.0 uM

Sequence of Phosphatidylinositol 4,5-bisphosphate 3-kinase catalytic subunit beta isoform (Homo sapiens) (P42338 whole entry, looked up, canonical isoform): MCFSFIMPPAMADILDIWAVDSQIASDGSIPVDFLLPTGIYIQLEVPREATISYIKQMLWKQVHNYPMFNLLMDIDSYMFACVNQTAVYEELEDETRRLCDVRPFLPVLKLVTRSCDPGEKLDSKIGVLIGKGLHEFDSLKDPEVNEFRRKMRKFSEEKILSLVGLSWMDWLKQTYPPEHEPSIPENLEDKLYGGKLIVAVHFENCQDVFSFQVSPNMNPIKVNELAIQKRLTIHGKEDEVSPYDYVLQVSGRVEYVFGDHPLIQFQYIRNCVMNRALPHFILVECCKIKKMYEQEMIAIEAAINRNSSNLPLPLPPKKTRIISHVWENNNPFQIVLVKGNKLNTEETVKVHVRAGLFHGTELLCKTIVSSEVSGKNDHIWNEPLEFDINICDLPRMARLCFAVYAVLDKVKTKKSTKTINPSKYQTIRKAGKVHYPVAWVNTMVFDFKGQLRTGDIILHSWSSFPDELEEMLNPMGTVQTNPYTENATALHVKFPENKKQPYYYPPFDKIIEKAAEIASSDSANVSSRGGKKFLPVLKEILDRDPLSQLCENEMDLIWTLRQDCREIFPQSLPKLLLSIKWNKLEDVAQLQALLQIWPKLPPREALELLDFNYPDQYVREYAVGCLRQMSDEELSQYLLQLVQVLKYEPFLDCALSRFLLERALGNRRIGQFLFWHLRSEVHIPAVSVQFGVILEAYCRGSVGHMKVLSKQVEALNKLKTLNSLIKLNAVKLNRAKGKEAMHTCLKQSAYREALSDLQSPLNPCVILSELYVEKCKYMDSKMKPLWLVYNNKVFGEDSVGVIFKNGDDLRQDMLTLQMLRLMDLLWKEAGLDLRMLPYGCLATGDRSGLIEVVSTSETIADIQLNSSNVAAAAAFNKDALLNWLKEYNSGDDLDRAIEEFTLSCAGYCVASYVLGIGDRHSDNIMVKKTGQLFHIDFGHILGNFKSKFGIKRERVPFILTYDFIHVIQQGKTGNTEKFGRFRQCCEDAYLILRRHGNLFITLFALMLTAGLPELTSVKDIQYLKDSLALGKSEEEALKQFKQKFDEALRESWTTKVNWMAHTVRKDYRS
Sequence of Cyclin-dependent kinase 5 (Homo sapiens) (Q00535 whole entry, looked up): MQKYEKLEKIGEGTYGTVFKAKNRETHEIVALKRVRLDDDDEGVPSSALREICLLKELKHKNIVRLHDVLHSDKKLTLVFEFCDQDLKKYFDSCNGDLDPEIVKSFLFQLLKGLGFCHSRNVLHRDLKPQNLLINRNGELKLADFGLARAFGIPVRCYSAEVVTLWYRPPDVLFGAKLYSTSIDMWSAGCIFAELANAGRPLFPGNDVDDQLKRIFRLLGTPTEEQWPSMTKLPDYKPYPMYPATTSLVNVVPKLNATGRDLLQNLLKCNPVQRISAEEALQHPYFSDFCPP
Sequence of Receptor tyrosine-protein kinase erbB-4 (Homo sapiens) (Q15303 whole entry): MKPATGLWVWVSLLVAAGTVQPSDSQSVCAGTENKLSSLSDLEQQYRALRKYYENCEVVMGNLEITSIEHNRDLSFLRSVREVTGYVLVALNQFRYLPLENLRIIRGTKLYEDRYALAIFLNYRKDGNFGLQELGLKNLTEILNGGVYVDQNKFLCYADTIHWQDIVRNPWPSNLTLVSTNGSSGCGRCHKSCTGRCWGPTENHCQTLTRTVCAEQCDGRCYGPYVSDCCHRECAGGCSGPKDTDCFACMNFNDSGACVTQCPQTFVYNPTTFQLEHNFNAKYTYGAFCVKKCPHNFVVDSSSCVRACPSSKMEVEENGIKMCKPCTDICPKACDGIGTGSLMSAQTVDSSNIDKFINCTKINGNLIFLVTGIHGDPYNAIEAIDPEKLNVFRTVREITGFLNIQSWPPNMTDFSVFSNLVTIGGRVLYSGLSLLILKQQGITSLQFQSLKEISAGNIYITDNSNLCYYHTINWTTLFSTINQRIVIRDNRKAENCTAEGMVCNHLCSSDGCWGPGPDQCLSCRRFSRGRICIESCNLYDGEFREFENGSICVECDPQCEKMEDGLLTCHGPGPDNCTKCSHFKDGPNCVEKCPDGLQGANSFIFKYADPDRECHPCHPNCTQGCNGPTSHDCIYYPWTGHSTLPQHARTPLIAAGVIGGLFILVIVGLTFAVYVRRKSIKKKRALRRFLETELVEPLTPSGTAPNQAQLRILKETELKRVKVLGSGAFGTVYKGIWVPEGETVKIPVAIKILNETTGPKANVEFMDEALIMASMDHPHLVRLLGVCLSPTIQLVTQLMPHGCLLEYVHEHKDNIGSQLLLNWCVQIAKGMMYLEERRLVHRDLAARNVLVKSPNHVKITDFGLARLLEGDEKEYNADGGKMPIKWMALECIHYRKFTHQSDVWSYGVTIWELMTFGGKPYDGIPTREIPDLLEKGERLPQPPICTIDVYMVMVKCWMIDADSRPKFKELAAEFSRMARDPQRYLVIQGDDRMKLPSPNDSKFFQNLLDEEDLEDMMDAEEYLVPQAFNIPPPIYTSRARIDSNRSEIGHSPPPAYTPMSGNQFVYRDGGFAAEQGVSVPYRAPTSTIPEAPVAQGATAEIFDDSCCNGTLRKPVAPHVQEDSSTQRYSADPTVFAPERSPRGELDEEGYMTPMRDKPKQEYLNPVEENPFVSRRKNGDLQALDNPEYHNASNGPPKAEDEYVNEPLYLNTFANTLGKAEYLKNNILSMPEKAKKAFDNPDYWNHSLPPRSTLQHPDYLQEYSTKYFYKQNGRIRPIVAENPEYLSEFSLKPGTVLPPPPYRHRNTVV
Sequence of Serine/threonine-protein kinase tousled-like 2 (Homo sapiens) (Q86UE8 whole entry, looked up): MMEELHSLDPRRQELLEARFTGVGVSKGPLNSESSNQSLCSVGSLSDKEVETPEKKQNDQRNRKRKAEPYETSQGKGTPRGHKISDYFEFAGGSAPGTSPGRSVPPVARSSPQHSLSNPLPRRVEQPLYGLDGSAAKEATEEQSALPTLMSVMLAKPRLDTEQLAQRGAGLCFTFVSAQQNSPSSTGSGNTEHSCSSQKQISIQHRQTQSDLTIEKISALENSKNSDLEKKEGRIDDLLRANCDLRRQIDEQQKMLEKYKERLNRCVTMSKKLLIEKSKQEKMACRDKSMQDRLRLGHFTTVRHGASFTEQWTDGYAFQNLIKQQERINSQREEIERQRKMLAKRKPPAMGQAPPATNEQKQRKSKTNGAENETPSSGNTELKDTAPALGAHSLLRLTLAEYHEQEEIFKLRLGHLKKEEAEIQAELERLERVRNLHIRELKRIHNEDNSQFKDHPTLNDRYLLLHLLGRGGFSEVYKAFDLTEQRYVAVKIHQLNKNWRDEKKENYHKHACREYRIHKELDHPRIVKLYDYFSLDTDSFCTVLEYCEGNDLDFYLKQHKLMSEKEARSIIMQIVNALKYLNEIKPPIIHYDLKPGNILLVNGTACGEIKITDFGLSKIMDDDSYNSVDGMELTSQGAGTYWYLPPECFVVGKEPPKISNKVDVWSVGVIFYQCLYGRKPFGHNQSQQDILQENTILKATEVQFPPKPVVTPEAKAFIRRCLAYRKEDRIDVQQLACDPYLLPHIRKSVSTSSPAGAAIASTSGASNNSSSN
Sequence of Mitogen-activated protein kinase kinase kinase 2 (Homo sapiens) (Q9Y2U5 whole entry): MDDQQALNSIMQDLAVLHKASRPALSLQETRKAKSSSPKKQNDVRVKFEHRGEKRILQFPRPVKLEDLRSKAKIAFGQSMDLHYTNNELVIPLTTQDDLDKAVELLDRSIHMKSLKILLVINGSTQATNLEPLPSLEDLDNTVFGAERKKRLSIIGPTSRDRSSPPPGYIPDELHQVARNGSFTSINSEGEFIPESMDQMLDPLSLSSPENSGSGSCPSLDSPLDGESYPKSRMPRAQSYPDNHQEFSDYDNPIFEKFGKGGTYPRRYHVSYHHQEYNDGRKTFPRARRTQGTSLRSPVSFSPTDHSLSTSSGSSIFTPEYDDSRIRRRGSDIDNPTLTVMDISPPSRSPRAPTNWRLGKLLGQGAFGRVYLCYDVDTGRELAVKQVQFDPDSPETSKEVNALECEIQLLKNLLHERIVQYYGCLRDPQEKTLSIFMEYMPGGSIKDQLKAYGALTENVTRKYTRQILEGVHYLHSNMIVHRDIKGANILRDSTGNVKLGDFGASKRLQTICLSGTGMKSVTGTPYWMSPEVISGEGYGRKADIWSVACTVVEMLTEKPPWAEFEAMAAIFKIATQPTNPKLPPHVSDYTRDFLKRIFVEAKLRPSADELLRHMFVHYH
Sequence of Cyclin-dependent kinase 3 (Homo sapiens) (Q00526 whole entry, looked up): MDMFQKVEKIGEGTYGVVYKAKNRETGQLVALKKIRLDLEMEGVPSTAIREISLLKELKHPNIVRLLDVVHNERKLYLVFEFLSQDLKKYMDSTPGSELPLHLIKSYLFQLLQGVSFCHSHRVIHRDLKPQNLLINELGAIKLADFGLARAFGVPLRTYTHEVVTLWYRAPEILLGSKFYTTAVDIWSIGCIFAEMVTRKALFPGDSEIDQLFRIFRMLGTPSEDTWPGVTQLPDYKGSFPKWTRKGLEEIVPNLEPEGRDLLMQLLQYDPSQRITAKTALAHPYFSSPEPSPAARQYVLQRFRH
Sequence of Serine/threonine-protein kinase OSR1 (Homo sapiens) (O95747 2-527 limits assumed): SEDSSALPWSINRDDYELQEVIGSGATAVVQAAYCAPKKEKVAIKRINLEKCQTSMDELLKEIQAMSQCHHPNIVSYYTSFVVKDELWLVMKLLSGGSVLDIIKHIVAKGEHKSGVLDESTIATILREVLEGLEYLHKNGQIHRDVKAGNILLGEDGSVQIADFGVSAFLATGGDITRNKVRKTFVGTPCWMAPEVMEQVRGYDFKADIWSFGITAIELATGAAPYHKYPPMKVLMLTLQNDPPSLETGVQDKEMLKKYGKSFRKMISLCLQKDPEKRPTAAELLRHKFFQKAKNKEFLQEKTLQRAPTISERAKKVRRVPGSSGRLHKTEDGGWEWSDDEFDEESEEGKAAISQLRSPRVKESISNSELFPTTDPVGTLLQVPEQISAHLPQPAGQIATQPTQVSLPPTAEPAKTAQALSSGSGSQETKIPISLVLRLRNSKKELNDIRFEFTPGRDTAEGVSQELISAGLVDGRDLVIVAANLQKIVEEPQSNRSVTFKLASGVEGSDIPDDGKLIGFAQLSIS

COc1ccc2c(O[C@@H]3C[C@H]4C(=O)N[C@]5(C(=O)O)CC5/C=C\CCCCC[C@H](NC(=O)OC5CCCC5)C(=O)N4C3)cc(-c3csc(NC(=O)C(C)C)n3)nc2c1C (stereo not given in full) [BI 1230]
inactive: residual activity [1] 92% | residual activity [2] 77% | residual activity [3] 100% | residual activity [4] 97% | residual activity [5] 100% | residual activity [6] 79% | residual activity [7] 76% | residual activity [8] 81% | residual activity [9] 62% | residual activity [10] 100% | residual activity [11] 100% | residual activity [12] 94% | residual activity [13] 73% | residual activity [14] 100% | residual activity [15] 97% | residual activity [16] 77% | residual activity [17] 100% | residual activity [18] 100% | residual activity [19] 74% | residual activity [20] 100% | residual activity [21] 100% | residual activity [22] 100% | residual activity [23] 100% | residual activity [24] 88% | residual activity [25] 62% | residual activity [26] 93% | residual activity [27] 82% | residual activity [28] 79% | residual activity [29] 100% | residual activity [30] 62% | residual activity [31] 100% | residual activity [32] 77% | residual activity [33] 81% | residual activity [34] 100% | residual activity [35] 100% | residual activity [36] 100% | residual activity [37] 94% | residual activity [38] 100% | residual activity [39] 70% | inhibition [40] 24.6% | inhibition [41] 15.3% | inhibition [43] 24.6% | inhibition [44] 0.21% | inhibition [45] 28%
active: inhibition [42] 60.3%

O=C(N[C@H]1CCCCC/C=C\C2C[C@@]2(C(=O)O)NC(=O)[C@@H]2C[C@@H](Oc3ccncc3)CN2C1=O)OC1CCCC1 (stereo not given in full) [BI 1675]
inactive: residual activity [1] 99% | residual activity [2] 93% | residual activity [3] 100% | residual activity [4] 77% | residual activity [5] 100% | residual activity [6] 84% | residual activity [7] 63% | residual activity [8] 85% | residual activity [10] 100% | residual activity [11] 100% | residual activity [12] 69% | residual activity [13] 56% | residual activity [14] 100% | residual activity [15] 100% | residual activity [16] 86% | residual activity [17] 96% | residual activity [18] 98% | residual activity [19] 63% | residual activity [20] 99% | residual activity [21] 92% | residual activity [22] 69% | residual activity [23] 100% | residual activity [24] 96% | residual activity [25] 100% | residual activity [26] 79% | residual activity [27] 75% | residual activity [28] 83% | residual activity [29] 100% | residual activity [30] 100% | residual activity [31] 92% | residual activity [32] 71% | residual activity [33] 100% | residual activity [34] 100% | residual activity [35] 100% | residual activity [36] 100% | residual activity [37] 100% | residual activity [38] 98% | residual activity [39] 93% | inhibition [40] 9.26% | inhibition [41] 0.78% | inhibition [42] 8.15% | inhibition [43] 12.8% | inhibition [44] -5.57% | inhibition [45] 18.5%
active: residual activity [9] 49%
